Like-named read-outs stand apart in the source and are kept apart here.
What was measured:
[1] = tested on: Beet Armyworm (Spodoptera exigua, LAPHEG); assay: Bioassays on Beet Armyworm (BAW), 128-well diet tray assay; type: in vivo; conditions: Spodoptera exigua
In short: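 Percent larval mortality, averaged across eight wells, scored after five to seven days at 25° C. under 14:10 light-dark. Each well held one to five second instars feeding on diet dosed at 50 μg/cm^2 with compound from 90:10 acetone-water, solvent dried off.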

[2] = tested on: Cabbage Looper (Trichoplusia ni, TRIPNI); assay: Bioassays on Cabbage Looper (CL), 128-well diet tray assay; type: in vivo; conditions: Trichoplusia ni
In short: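 Activity is mean percent mortality over eight wells of second-instar larvae exposed to diet treated at 50 μg/cm^2 for 5–7 days at 25° C.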

[3] = Table ABC: Biological Results, species BAW, read-out: BAW
[4] = Table ABC: Biological Results, species CL, read-out: CL
[5] = Beet Armyworm, rating class, read-out: BAW
[6] = Cabbage Looper, rating class, read-out: CL
[7] = Beet Armyworm, Table ABC / ABC-DP rating, read-out: BAW rating
[8] = Cabbage Looper, Table ABC / ABC-DP rating, read-out: CL rating

With `CC(=O)OCCNc1ccc(NC(=O)c2cc(NC(=O)[C@H]3[C@H](c4ccc(F)c(C(F)(F)F)c4)C3(Cl)Cl)ccc2Cl)c(C)c1` [F1144, 2-((4-(2-Chloro-5-((1R,3R)-2,2-dichloro-3-(4-fluoro-3-(trifluoromethyl)phenyl)cyclopropane-1-carboxamido)benzamido)-3-methylphenyl)amino)ethyl acetate] the pest or weed control at 50 µg/cm2 [1, 3] was 50 to 100% and the pest or weed control at 50 µg/cm2 [2, 4] was 50 to 100%.
Molecule `O=C(Nc1ccc(F)c(NCc2ccc([N+](=O)[O-])cc2)c1F)c1cc(NC(=O)[C@H]2[C@H](c3ccc(F)c(C(F)(F)F)c3)C2(Cl)Cl)ccc1Cl` [F1296, 2-Chloro-5-((1R,3R)-2,2-dichloro-3-(4-fluoro-3-(trifluoromethyl)phenyl)cyclopropane-1-carboxamido)-N-(2,4-difluoro-3-((4-nitrobenzyl)amino)phenyl)benzamide] has a pest or weed control at 50 µg/cm2 [1, 3] of 50 to 100% and a pest or weed control at 50 µg/cm2 [2, 4] of 50 to 100%.
For `O=C(Nc1c(F)ccc(NC(=O)C(F)F)c1F)c1cc(NC(=O)[C@H]2[C@H](c3cc(Cl)cc(Cl)c3)C2(Cl)Cl)cc(F)c1Cl` [F1341, 2-Chloro-5-((1R,3R)-2,2-dichloro-3-(3,5-dichlorophenyl)cyclopropane-1-carboxamido)-N-(3-(2,2-difluoroacetamido)-2,6-difluorophenyl)-3-fluorobenzamide], the pest or weed control at 50 µg/cm2 [1, 3] was 50 to 100% and the pest or weed control at 50 µg/cm2 [2, 4] was 50 to 100%.
For `CC(=O)Nc1ccc(NC(=O)c2cc(NC(=O)[C@H]3[C@H](c4ccc(F)c(Cl)c4)C3(Cl)Cl)cc(F)c2F)cc1` (relative stereo) [F1210, trans-N-(4-Acetamidophenyl)-5-(2,2-dichloro-3-(3-chloro-4-fluorophenyl)cyclopropane-1-carboxamido)-2,3-difluorobenzamide], the pest or weed control at 50 µg/cm2 [1, 3] was 50 to 100% and the pest or weed control at 50 µg/cm2 [2, 4] was 50 to 100%.
In the case of `O=C(Nc1ccc(F)c(NC(=O)C(F)(F)F)c1)c1cc(NC(=O)[C@H]2[C@H](c3cc(Cl)cc(Cl)c3)C2(Cl)Cl)ccc1Cl` (relative stereo) [F1641, trans-2-Chloro-5-(2,2-dichloro-3-(3,5-dichlorophenyl)cyclopropane-1-carboxamido)-N-(4-fluoro-3-(2,2,2-trifluoroacetamido)phenyl)benzamide], the pest or weed control at 50 µg/cm2 [1, 5] is reported as 50 to 100% and the pest or weed control at 50 µg/cm2 [2, 6] is reported as 50 to 100%.
For `O=C(CC(F)(F)F)Nc1c(F)ccc(NC(=O)c2cc(NC(=O)[C@H]3[C@H](c4ccc(F)c(Br)c4)C3(Cl)Cl)ccc2Cl)c1F` [F1718, 5-((1R,3R)-3-(3-Bromo-4-fluorophenyl)-2,2-dichlorocyclopropane-1-carboxamido)-2-chloro-N-(2,4-difluoro-3-(3,3,3-trifluoropropanamido)phenyl)benzamide], the pest or weed control at 50 µg/cm2 [1, 5] was 50 to 100% and the pest or weed control at 50 µg/cm2 [2, 6] was 50 to 100%.
Molecule `C=CCC(=O)Nc1c(F)ccc(NC(=O)c2cc(NC(=O)[C@H]3[C@H](c4ccc(Cl)c(Cl)c4)C3(Cl)Cl)ccc2Cl)c1F` [F1873, N-(3-(But-3-enamido)-2,4-difluorophenyl)-2-chloro-5-((1R,3R)-2,2-dichloro-3-(3,4-dichlorophenyl)cyclopropane-1-carboxamido)benzamide] has a pest or weed control at 50 µg/cm2 [1, 7] of 50 to 100% and a pest or weed control at 50 µg/cm2 [2, 8] of 50 to 100%.
`CC(=O)Nc1cc(NC(=O)c2cc(NC(=O)[C@H]3[C@H](c4ccc(Cl)c(Cl)c4)C3(Cl)Cl)cc(F)c2F)c(F)cc1F` [F1585, N-(5-Acetamido-2,4-difluorophenyl)-5-((1R,3R)-2,2-dichloro-3-(3,4-dichlorophenyl)cyclopropane-1-carboxamido)-2,3-difluorobenzamide] was tested, and the pest or weed control at 50 µg/cm2 [1, 5] was 50 to 100% and the pest or weed control at 50 µg/cm2 [2, 6] was 50 to 100%.
`C=CC(=O)Nc1c(F)ccc(NC(=O)c2cc(NC(=O)[C@H]3[C@H](c4ccc(F)c(C(F)(F)F)c4)C3(Cl)Cl)ccc2Cl)c1F` [F1877, N-(3-Acrylamido-2,4-difluorophenyl)-2-chloro-5-((1R,3R)-2,2-dichloro-3-(4-fluoro-3-(trifluoromethyl)phenyl)cyclopropane-1-carboxamido)benzamide] showed a pest or weed control at 50 µg/cm2 [1, 7] of 50 to 100% and a pest or weed control at 50 µg/cm2 [2, 8] of 50 to 100%.
With `O=C(Nc1ccc(F)c(NC(=O)C(F)(F)F)c1F)c1cc(NC(=O)[C@H]2[C@H](c3cc(Cl)cc(Cl)c3)C2(Cl)Cl)cc(F)c1Cl` [F1330, 2-Chloro-5-((1R,3R)-2,2-dichloro-3-(3,5-dichlorophenyl)cyclopropane-1-carboxamido)-N-(2,4-difluoro-3-(2,2,2-trifluoroacetamido)phenyl)-3-fluorobenzamide] the pest or weed control at 50 µg/cm2 [1, 3] was 50 to 100% and the pest or weed control at 50 µg/cm2 [2, 4] was 50 to 100%.
`CN(C(=O)c1cc(NC(=O)[C@H]2[C@H](c3ccc(Cl)c(Cl)c3)C2(Cl)Cl)ccc1Cl)c1ccc(F)c(N)c1F` [F1056, N-(3-Amino-2,4-difluorophenyl)-2-chloro-5-((1R,3R)-2,2-dichloro-3-(3,4-dichlorophenyl)cyclopropane-1-carboxamido)-N-methylbenzamide] showed a pest or weed control at 50 µg/cm2 [1, 3] of 50 to 100% and a pest or weed control at 50 µg/cm2 [2, 4] of 50 to 100%.
With `O=C(Nc1ccc(F)cc1F)c1cc(NC(=O)[C@H]2[C@H](c3ccc(F)c(Cl)c3)C2(Cl)Cl)cc(Cl)c1F` (relative stereo) [F1196, trans-3-Chloro-5-(2,2-dichloro-3-(3-chloro-4-fluorophenyl)cyclopropane-1-carboxamido)-N-(2,4-difluorophenyl)-2-fluorobenzamide] the pest or weed control at 50 µg/cm2 [1, 3] was 50 to 100% and the pest or weed control at 50 µg/cm2 [2, 4] was 50 to 100%.
In the case of `Cc1cc(NC(=O)[C@H]2[C@H](c3ccc(Cl)c(Cl)c3)C2(Cl)Cl)cc(C(=O)Nc2ccc(F)c(N)c2F)c1Cl` [F1446, N-(3-Amino-2,4-difluorophenyl)-2-chloro-5-((1R,3R)-2,2-dichloro-3-(3,4-dichlorophenyl)cyclopropane-1-carboxamido)-3-methylbenzamide], the pest or weed control at 50 µg/cm2 [1, 5] is reported as 50 to 100% and the pest or weed control at 50 µg/cm2 [2, 6] is reported as 50 to 100%.
`O=C(Nc1cc(NC(=O)C(F)(F)F)c(F)cc1F)c1cc(NC(=O)[C@H]2[C@H](c3ccc(F)c(C(F)(F)F)c3)C2(Cl)Cl)cc(F)c1F` [F1584, 5-((1R,3R)-2,2-Dichloro-3-(4-fluoro-3-(trifluoromethyl)phenyl)cyclopropane-1-carboxamido)-N-(2,4-difluoro-5-(2,2,2-trifluoroacetamido)phenyl)-2,3-difluorobenzamide] was tested, and the pest or weed control at 50 µg/cm2 [1, 5] was 50 to 100% and the pest or weed control at 50 µg/cm2 [2, 6] was 50 to 100%.
Work on `CC(=O)Nc1ccc(F)c(NC(=O)c2cc(NC(=O)[C@H]3[C@H](c4cc(Cl)c(Cl)c(Cl)c4)C3(Cl)Cl)ccc2Cl)c1F` [F1515, N-(3-Acetamido-2,6-difluorophenyl)-2-chloro-5-((1R,3R)-2,2-dichloro-3-(3,4,5-trichlorophenyl)cyclopropane-1-carboxamido)benzamide] yielded a pest or weed control at 50 µg/cm2 [1, 5] of 50 to 100% and a pest or weed control at 50 µg/cm2 [2, 6] of 50 to 100%.
With `O=C(Nc1c(F)ccc(NC(=O)c2cc(NC(=O)[C@H]3[C@H](c4ccc(F)c(C(F)(F)F)c4)C3(Cl)Cl)ccc2Cl)c1F)c1cnns1` [F1820, N-(3-(2-Chloro-5-((1R,3R)-2,2-dichloro-3-(4-fluoro-3-(trifluoromethyl)phenyl)cyclopropane-1-carboxamido)benzamido)-2,6-difluorophenyl)-1,2,3-thiadiazole-5-carboxamide] the pest or weed control at 50 µg/cm2 [1, 7] was 50 to 100% and the pest or weed control at 50 µg/cm2 [2, 8] was 50 to 100%.
For `CC(C)NC(=S)NNC(=O)c1cc(NC(=O)[C@H]2[C@H](c3cc(Cl)cc(Cl)c3)C2(Cl)Cl)ccc1Cl` (relative stereo) [F2540, trans-2,2-Dichloro-N-(4-chloro-3-(2-(isopropylcarbamothioyl)hydrazine-1-carbonyl)phenyl)-3-(3,5-dichlorophenyl)cyclopropane-1-carboxamide], the pest or weed control at 50 µg/cm2 [1, 7] was 50 to 100% and the pest or weed control at 50 µg/cm2 [2, 8] was 50 to 100%.
`O=C(Nc1c(F)ccc(NC(=O)c2cc(NC(=O)[C@H]3[C@H](c4ccc(F)c(C(F)(F)F)c4)C3(Cl)Cl)ccc2Cl)c1F)c1cccnc1` [F1206, N-(3-(2-Chloro-5-((1R,3R)-2,2-dichloro-3-(4-fluoro-3-(trifluoromethyl)phenyl)cyclopropane-1-carboxamido)benzamido)-2,6-difluorophenyl)nicotinamide] gave a pest or weed control at 50 µg/cm2 [1, 3] of 50 to 100% and a pest or weed control at 50 µg/cm2 [2, 4] of 50 to 100%.
`CC(=O)Nc1ccc(NC(=O)c2c(F)ccc(NC(=O)[C@H]3[C@H](c4ccc(F)c(Cl)c4)C3(Cl)Cl)c2F)cc1` (relative stereo) [F1101, trans-N-(4-Acetamidophenyl)-3-(2,2-dichloro-3-(3-chloro-4-fluorophenyl)cyclopropane-1-carboxamido)-2,6-difluorobenzamide] gave a pest or weed control at 50 µg/cm2 [1, 3] of 50 to 100% and a pest or weed control at 50 µg/cm2 [2, 4] of 50 to 100%.
`Cc1cc(NC(=O)[C@H]2[C@H](c3cc(Cl)c(Cl)c(Cl)c3)C2(Cl)Cl)cc(C(=O)Nc2ccc(F)c(NC(=O)C(F)(F)F)c2F)c1Cl` [F1487, 2-Chloro-5-((1R,3R)-2,2-dichloro-3-(3,4,5-trichlorophenyl)cyclopropane-1-carboxamido)-N-(2,4-difluoro-3-(2,2,2-trifluoroacetamido)phenyl)-3-methylbenzamide] was tested, and the pest or weed control at 50 µg/cm2 [1, 5] was 50 to 100% and the pest or weed control at 50 µg/cm2 [2, 6] was 50 to 100%.
For `O=C(Nc1ccc(F)c(NS(=O)(=O)CC2CC2(Cl)Cl)c1F)c1cc(NC(=O)[C@H]2[C@H](c3ccc(F)c(C(F)(F)F)c3)C2(Cl)Cl)ccc1Cl` (stereo partly drawn) [F1361, 2-Chloro-5-((1R,3R)-2,2-dichloro-3-(4-fluoro-3-(trifluoromethyl)phenyl)cyclopropane-1-carboxamido)-N-(3-(((2,2-dichlorocyclopropyl)methyl)sulfonamido)-2,4-difluorophenyl)benzamide], the pest or weed control at 50 µg/cm2 [1, 3] was 50 to 100% and the pest or weed control at 50 µg/cm2 [2, 4] was 50 to 100%.

— patent US20250228239A1, “MOLECULES HAVING PESTICIDAL UTILITY, AND INTERMEDIATES, COMPOSITIONS, AND PROCESSES, RELATED THERETO” (priority 2024, published 2025)
